Measured values as given in the NIST ThermoML archive (doi:10.1021/je049814b).

Conditions: Liquid, Coaxial cylinder method

O [water]
thermal conductivity [W/m/K]
Conditions | 290.6 K | 329.7 K | 367.1 K | 395.1 K | 440.7 K | 484.2 K | 514.2 K | 549.8 K | 575.4 K
1000 kPa | 0.592 | 0.649 | 0.679 | 0.683 | – | – | – | – | –
10000 kPa | 0.602 | 0.655 | 0.684 | 0.692 | 0.683 | 0.66 | 0.638 | 0.587 | 0.54
40000 kPa | 0.613 | 0.665 | 0.697 | 0.709 | 0.703 | 0.684 | 0.662 | 0.628 | 0.594
